Experiments:
[1] = system: late watergrass; experiment: Test Example 1: herbicidal activity, application before weed generation under submerged conditions (Table 16, symbol A); format: in vivo, late watergrass (Echinochloa oryzicola); settings: 320 g/ha applied herbicide
In short: (§1)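 Emulsion formulation, water-diluted to set dose, was put onto the flooded surface (4 cm depth, alluvial soil) the same day weeds were sown and 2.5-leaf rice transplanted. After 3 weeks at 25-30 °C under glass, each species was rated 0 (≤5% kill) to 5 (≥90% kill).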

[2] = system: Japanese bulrush; experiment: Test Example 1: herbicidal activity, application before weed generation under submerged conditions (Table 16, symbol B); format: in vivo, Japanese bulrush (Schoenoplectus juncoides); settings: 320 g/ha applied herbicide
In short: as §1

[3] = system: oval-leafed pondweed; experiment: Test Example 1: herbicidal activity, application before weed generation under submerged conditions (Table 16, symbol C); format: in vivo, oval-leafed pondweed (Monochoria vaginalis); settings: 320 g/ha applied herbicide
In short: as §1

[4] = system: barnyard grass; experiment: Test Example 3: herbicidal effect by foliage application, Wagner pot (Table 18, symbol H); format: in vivo, barnyard grass (Echinochloa crus-galli); settings: amount of applied herbicide 320 g/ha
In short: (§2)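 Plants were sown in alluvial soil held under 0.1–0.5 cm standing water and grown 14 days in a greenhouse at 25–30 °C. An emulsifiable formulation, water-diluted to the set dose, was then sprayed onto the foliage, and effects were scored three weeks later using previously defined criteria.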

[5] = system: Chinese sprangletop; experiment: Test Example 3: herbicidal effect by foliage application, Wagner pot (Table 18, symbol D); format: in vivo, chinese sprangletop (Leptochloa chinensis); settings: amount of applied herbicide 320 g/ha
In short: as §2

[6] = system: rice flat sedge; experiment: Test Example 3: herbicidal effect by foliage application, Wagner pot (Table 18, symbol E); format: in vivo, rice flat sedge (Cyperus iria); settings: amount of applied herbicide 320 g/ha
In short: as §2

[7] = system: southern crabgrass; experiment: Test Example 4: herbicidal effect by soil treatment (Table 19, symbol F); format: in vivo, southern crabgrass (Digitaria ciliaris); settings: amount of applied herbicide 320 g/ha
In short: (§3)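 Emulsion of test compound, water-diluted to predetermined amount, sprayed on soil after sowing (seed depth ~1.5 cm, sterilized diluvial soil). Greenhouse, 25–30° C. Effect graded at three weeks post-spray.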

[8] = system: green foxtail; experiment: Test Example 4: herbicidal effect by soil treatment (Table 19, symbol G); format: in vivo, green foxtail (Setaria viridis); settings: amount of applied herbicide 320 g/ha
In short: as §3

[9] = system: barnyard grass; experiment: Test Example 4: herbicidal effect by soil treatment (Table 19, symbol H); format: in vivo, barnyard grass (Echinochloa crus-galli); settings: amount of applied herbicide 320 g/ha
In short: as §3

[10] = system: wild oat; experiment: Test Example 4: herbicidal effect by soil treatment (Table 19, symbol I); format: in vivo, wild oat (Avena fatua); settings: amount of applied herbicide 320 g/ha
In short: as §3

[11] = system: blackgrass; experiment: Test Example 4: herbicidal effect by soil treatment (Table 19, symbol J); format: in vivo, blackgrass (Alopecurus myosuroides); settings: amount of applied herbicide 320 g/ha
In short: as §3

[12] = system: Italian ryegrass; experiment: Test Example 4: herbicidal effect by soil treatment (Table 19, symbol K); format: in vivo, Italian ryegrass (Lolium multiflorum); settings: amount of applied herbicide 320 g/ha
In short: as §3

[13] = system: windgrass; experiment: Test Example 4: herbicidal effect by soil treatment (Table 19, symbol L); format: in vivo, windgrass (Apera spica-venti); settings: amount of applied herbicide 320 g/ha
In short: as §3

[14] = system: velvetleaf; experiment: Test Example 4: herbicidal effect by soil treatment (Table 19, symbol M); format: in vivo, velvetleaf (Abutilon theophrasti); settings: amount of applied herbicide 320 g/ha
In short: as §3

[15] = system: redroot pigweed; experiment: Test Example 4: herbicidal effect by soil treatment (Table 19, symbol N); format: in vivo, redroot pigweed (Amaranthus retroflexus); settings: amount of applied herbicide 320 g/ha
In short: as §3

[16] = system: lambsquarters; experiment: Test Example 4: herbicidal effect by soil treatment (Table 19, symbol O); format: in vivo, lambsquarters (Chenopodium album); settings: amount of applied herbicide 320 g/ha
In short: as §3

[17] = system: chickweed; experiment: Test Example 4: herbicidal effect by soil treatment (Table 19, symbol P); format: in vivo, common chickweed (Stellaria media); settings: amount of applied herbicide 320 g/ha
In short: as §3

[18] = system: persian speedwell; experiment: Test Example 4: herbicidal effect by soil treatment (Table 19, symbol R); format: in vivo, Persian speedwell (Veronica persica); settings: amount of applied herbicide 320 g/ha
In short: as §3

[19] = system: southern crabgrass; experiment: Test Example 5: herbicidal effect by foliage application, plastic box (Table 20, symbol F); format: in vivo, southern crabgrass (Digitaria ciliaris); settings: foliage application, 320 g/ha, evaluated three weeks after application
In short: (§4)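 Post-emergence foliar test in sterilized diluvial soil. Compound applied as water-diluted emulsion at a predetermined rate to 14-day-old plants; evaluation at three weeks.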

[20] = system: green foxtail; experiment: Test Example 5: herbicidal effect by foliage application, plastic box (Table 20, symbol G); format: in vivo, green foxtail (Setaria viridis); settings: foliage application, 320 g/ha, evaluated three weeks after application
In short: as §4

[21] = system: barnyard grass; experiment: Test Example 5: herbicidal effect by foliage application, plastic box (Table 20, symbol H); format: in vivo, barnyard grass (Echinochloa crus-galli); settings: foliage application, 320 g/ha, evaluated three weeks after application
In short: as §4

[22] = system: wild oat; experiment: Test Example 5: herbicidal effect by foliage application, plastic box (Table 20, symbol I); format: in vivo, wild oat (Avena fatua); settings: foliage application, 320 g/ha, evaluated three weeks after application
In short: as §4

[23] = system: blackgrass; experiment: Test Example 5: herbicidal effect by foliage application, plastic box (Table 20, symbol J); format: in vivo, blackgrass (Alopecurus myosuroides); settings: foliage application, 320 g/ha, evaluated three weeks after application
In short: as §4

[24] = system: Italian ryegrass; experiment: Test Example 5: herbicidal effect by foliage application, plastic box (Table 20, symbol K); format: in vivo, Italian ryegrass (Lolium multiflorum); settings: foliage application, 320 g/ha, evaluated three weeks after application
In short: as §4

[25] = system: windgrass; experiment: Test Example 5: herbicidal effect by foliage application, plastic box (Table 20, symbol L); format: in vivo, windgrass (Apera spica-venti); settings: foliage application, 320 g/ha, evaluated three weeks after application
In short: as §4

[26] = system: velvetleaf; experiment: Test Example 5: herbicidal effect by foliage application, plastic box (Table 20, symbol M); format: in vivo, velvetleaf (Abutilon theophrasti); settings: foliage application, 320 g/ha, evaluated three weeks after application
In short: as §4

[27] = system: redroot pigweed; experiment: Test Example 5: herbicidal effect by foliage application, plastic box (Table 20, symbol N); format: in vivo, redroot pigweed (Amaranthus retroflexus); settings: foliage application, 320 g/ha, evaluated three weeks after application
In short: as §4

[28] = system: lambsquarters; experiment: Test Example 5: herbicidal effect by foliage application, plastic box (Table 20, symbol O); format: in vivo, lambsquarters (Chenopodium album); settings: foliage application, 320 g/ha, evaluated three weeks after application
In short: as §4

[29] = system: chickweed; experiment: Test Example 5: herbicidal effect by foliage application, plastic box (Table 20, symbol P); format: in vivo, common chickweed (Stellaria media); settings: foliage application, 320 g/ha, evaluated three weeks after application
In short: as §4

[30] = system: persian speedwell; experiment: Test Example 5: herbicidal effect by foliage application, plastic box (Table 20, symbol R); format: in vivo, Persian speedwell (Veronica persica); settings: foliage application, 320 g/ha, evaluated three weeks after application
In short: as §4

SMILES	Herbicidal effect on A: late watergrass (grade 0-5) [1]	Herbicidal effect on B: Japanese bulrush (grade 0-5) [2]	Herbicidal effect on C: oval-leafed pondweed (grade 0-5) [3]	herbicidal effect on H: barnyard grass [4]	herbicidal effect on D: Chinese sprangletop [5]	herbicidal effect on E: rice flat sedge [6]	F: southern crabgrass, herbicidal effect rating [7]	G: green foxtail, herbicidal effect rating [8]	H: barnyard grass, herbicidal effect rating [9]	I: wild oat, herbicidal effect rating [10]	J: blackgrass, herbicidal effect rating [11]	K: Italian ryegrass, herbicidal effect rating [12]	L: windgrass, herbicidal effect rating [13]	M: velvetleaf, herbicidal effect rating [14]	N: redroot pigweed, herbicidal effect rating [15]	O: lambsquarters, herbicidal effect rating [16]	P: chickweed, herbicidal effect rating [17]	R: persian speedwell, herbicidal effect rating [18]	herbicidal effect on F: southern crabgrass (criteria 0-5) [19]	herbicidal effect on G: green foxtail (criteria 0-5) [20]	further results
Cc1nn(C)c(=O)c(-c2c(-c3ccccc3Cl)sc3ccc(F)cc23)c1O [2-203]	2 (Herbicidal rate of 20% or more and less than 40%)	0 (Herbicidal rate of 5% or less (almost no effect))	0 (Herbicidal rate of 5% or less (almost no effect))	4 (Herbicidal rate of 70% or more and less than 90%)	4 (Herbicidal rate of 70% or more and less than 90%)	5 (Herbicidal rate of 90% or more (almost completely withered))	0 (Herbicidal rate of 5% or less (almost no effect))	0 (Herbicidal rate of 5% or less (almost no effect))	0 (Herbicidal rate of 5% or less (almost no effect))	0 (Herbicidal rate of 5% or less (almost no effect))	0 (Herbicidal rate of 5% or less (almost no effect))	0 (Herbicidal rate of 5% or less (almost no effect))	0 (Herbicidal rate of 5% or less (almost no effect))	1 (Herbicidal rate of 5% or more and less than 20%)	2 (Herbicidal rate of 20% or more and less than 40%)	3 (Herbicidal rate of 40% or more and less than 70%)	3 (Herbicidal rate of 40% or more and less than 70%)	0 (Herbicidal rate of 5% or less (almost no effect))	0 (Herbicidal rate of 5% or less (almost no effect))	4 (Herbicidal rate of 70% or more and less than 90%)	herbicidal effect on H: barnyard grass (criteria 0-5) [21]: 2 (Herbicidal rate of 20% or more and less than 40%); herbicidal effect on I: wild oat (criteria 0-5) [22]: 0 (Herbicidal rate of 5% or less (almost no effect)); herbicidal effect on J: blackgrass (criteria 0-5) [23]: 0 (Herbicidal rate of 5% or less (almost no effect)); herbicidal effect on K: Italian ryegrass (criteria 0-5) [24]: 2 (Herbicidal rate of 20% or more and less than 40%); herbicidal effect on L: windgrass (criteria 0-5) [25]: 4 (Herbicidal rate of 70% or more and less than 90%); herbicidal effect on M: velvetleaf (criteria 0-5) [26]: 4 (Herbicidal rate of 70% or more and less than 90%); herbicidal effect on N: redroot pigweed (criteria 0-5) [27]: 3 (Herbicidal rate of 40% or more and less than 70%); herbicidal effect on O: lambsquarters (criteria 0-5) [28]: 3 (Herbicidal rate of 40% or more and less than 70%); herbicidal effect on P: chickweed (criteria 0-5) [29]: 5 (Herbicidal rate of 90% or more (almost completely withered)); herbicidal effect on R: persian speedwell (criteria 0-5) [30]: 4 (Herbicidal rate of 70% or more and less than 90%)
CCOc1cccc(-c2sc3ccc(F)cc3c2-c2c(O)c(C)nn(C)c2=O)c1 [2-211]	2 (Herbicidal rate of 20% or more and less than 40%)	0 (Herbicidal rate of 5% or less (almost no effect))	0 (Herbicidal rate of 5% or less (almost no effect))	5 (Herbicidal rate of 90% or more (almost completely withered))	5 (Herbicidal rate of 90% or more (almost completely withered))	4 (Herbicidal rate of 70% or more and less than 90%)	5 (Herbicidal rate of 90% or more (almost completely withered))	4 (Herbicidal rate of 70% or more and less than 90%)	5 (Herbicidal rate of 90% or more (almost completely withered))	0 (Herbicidal rate of 5% or less (almost no effect))	4 (Herbicidal rate of 70% or more and less than 90%)	5 (Herbicidal rate of 90% or more (almost completely withered))	3 (Herbicidal rate of 40% or more and less than 70%)	3 (Herbicidal rate of 40% or more and less than 70%)	5 (Herbicidal rate of 90% or more (almost completely withered))	2 (Herbicidal rate of 20% or more and less than 40%)	3 (Herbicidal rate of 40% or more and less than 70%)	5 (Herbicidal rate of 90% or more (almost completely withered))	5 (Herbicidal rate of 90% or more (almost completely withered))	5 (Herbicidal rate of 90% or more (almost completely withered))	herbicidal effect on H: barnyard grass (criteria 0-5) [21]: 5 (Herbicidal rate of 90% or more (almost completely withered)); herbicidal effect on I: wild oat (criteria 0-5) [22]: 0 (Herbicidal rate of 5% or less (almost no effect)); herbicidal effect on J: blackgrass (criteria 0-5) [23]: 4 (Herbicidal rate of 70% or more and less than 90%); herbicidal effect on K: Italian ryegrass (criteria 0-5) [24]: 5 (Herbicidal rate of 90% or more (almost completely withered)); herbicidal effect on L: windgrass (criteria 0-5) [25]: 4 (Herbicidal rate of 70% or more and less than 90%); herbicidal effect on M: velvetleaf (criteria 0-5) [26]: 5 (Herbicidal rate of 90% or more (almost completely withered)); herbicidal effect on N: redroot pigweed (criteria 0-5) [27]: 5 (Herbicidal rate of 90% or more (almost completely withered)); herbicidal effect on O: lambsquarters (criteria 0-5) [28]: 5 (Herbicidal rate of 90% or more (almost completely withered)); herbicidal effect on P: chickweed (criteria 0-5) [29]: 5 (Herbicidal rate of 90% or more (almost completely withered)); herbicidal effect on R: persian speedwell (criteria 0-5) [30]: 5 (Herbicidal rate of 90% or more (almost completely withered))

Reference: patent publication US20230085307A1, “PYRIDAZINONE COMPOUND AND HERBICIDE” (NISSAN CHEMICAL CORPORATION, priority 2019, published 2023)
